How the values were obtained:
[1] = target: human CD28 Protein, His Tag (Homo sapiens, UniProt P10747); assay: MST / TRIC; format: binding
[2] = target: Biotinylated human CD28 protein (His-tagged, AviTag) (Homo sapiens, UniProt P10747); assay: SPR; format: binding
Chain of Biotinylated human CD28 protein (His-tagged, AviTag) (P10747 19-152 limits assumed): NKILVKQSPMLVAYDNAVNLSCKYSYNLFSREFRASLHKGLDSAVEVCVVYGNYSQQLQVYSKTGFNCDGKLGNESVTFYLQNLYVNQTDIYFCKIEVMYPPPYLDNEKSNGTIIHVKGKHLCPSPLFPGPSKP

Chain of human CD28 Protein, His Tag (P10747 19-152): as the sequence (P10747 19-152 limits assumed) above

| SMILES | Kd [1] | Kd [2] |
| --- | --- | --- |
| CCN(CC)C(=O)/C(C#N)=C/c1cc(O)c(O)c([N+](=O)[O-])c1 [1I03, Entacapone] | 45.6 ± 52.1 µM | – |
| Nc1c(C(=O)O)c2nc3c(C(=O)O)cccc3oc-2cc1=O [1O03, Cinnabarinic acid] | 14.6 ± 8.23 µM | – |
| CN1c2ccc([N+](=O)[O-])cc2N=C(c2ccc(C(=O)O)cc2)c2cc3c(cc21)C(C)(C)CCC3(C)C [1K19, HX531] | 245 ± 151 µM | – |

Further compounds by falling Kd [1], results first:

| Kd [1] | Kd [2] | SMILES |
| --- | --- | --- |
| 283 ± 398 µM | – | CC(C)=CCC/C(C)=C/CC/C(C)=C/C=C/C(C)=C/C(=O)O [2L10, Peretinoin] |
| 236 ± 110 µM | 181 ± 53 µM | Cc1nc(C#Cc2ccnc(Cl)c2)c(C)n1-c1ccc(OC(F)(F)F)cc1 [2B10, CTEP] |
| 45.1 ± 68.9 µM | – | O=C(Cc1ccccc1)c1cc(O)c(O)c([N+](=O)[O-])c1 [1F19, Nebicapone] |
| 8.37 ± 4.42 µM | – | CNc1nc2ccccc2n2c(-c3ccc(O)c(O)c3)cnc12 [2B06, EAPB 02303] |

Source: article doi:10.1101/2025.05.27.656499v1 (biorxiv, 2025)
